Data published in patent publication US7595330B2, “Benzimidazole thiophene compounds” (SmithKline Beecham Corporation, priority 2005, dated 2009).
Read-outs that look alike come from different tables or passages of the source.

What was measured:
H1299 = experiment: Cell-Titer-Glo inhibition of cell proliferation, H1299; assay type: cell-based; conditions: Homo sapiens, NCI-H1299, CellTiter-Glo, 72 h
Protocol: (§1) V. Cell-Titer-Glo—Inhibition of Cell Proliferation by PLK1 Inhibitors
(§2) Exponentially growing cell lines of different tumor origins, cultured in appropriate media containing 10% fetal bovine serum at 37° C. in a 5% CO2 incubator were plated at low density (less than 2000 cells/well) in 96-well plates. Twenty four hours post-plating, cells were treated with different concentrations of test compounds ranging from 10 uM to 0.04 nM. Several wells were left untreated as a control. Seventy two hours post-treatment, cell numbers were determined using 50-100 ul per well of CellTiter-Glo (Promega #G7573). Plates were incubated at room temperature for 15 minutes and the chemiluminescent signal was read on the Victor V or Envison 2100 reader.
(§3) The Cell-Titer Glo data are shown in Table 2 below and represent a compilation of several different experiments, each performed using the general parameters outlined above, although minor variations may have been employed in some instances.

HCT116 [1] = experiment: Cell-Titer-Glo inhibition of cell proliferation, HCT116; assay type: cell-based; conditions: Homo sapiens, HCT-116, CellTiter-Glo, 72 h
Protocol: as §1, §2, §3

COLO205 = experiment: Cell-Titer-Glo inhibition of cell proliferation, COLO205; assay type: cell-based; conditions: Homo sapiens, COLO 205, CellTiter-Glo, 72 h
Protocol: as §1, §2, §3

SKOV-3 = experiment: Cell-Titer-Glo inhibition of cell proliferation, SKOV-3; assay type: cell-based; conditions: Homo sapiens, SK-OV-3, CellTiter-Glo, 72 h
Protocol: as §1, §2, §3

RKO = experiment: Methylene blue growth inhibition assay, RKO; assay type: cell-based; conditions: Homo sapiens, 72 h
Protocol: (§4) II. Methylene Blue Growth Inhibition Assay—Inhibition of Cell Proliferation by PLK1 Inhibitors
(§5) Generally, exponentially growing cell lines of different tumor origins, cultured in appropriate media containing 10% fetal bovine serum at 37° C. in a 5% CO2 incubator were plated at low density (less than 2000 cells/well) in 96-well plates. […]. Seventy two hours post-treatment, cell numbers were determined using 100 μl per well of methylene blue (Sigma M9140) (0.5% in 50:50 Ethanol:water). Stain was incubated at room temperature for 30 minutes before plates were rinsed and dye solubilized in 1% N-lauroyl sarcosine, sodium salt, (Sigma L5125, in PBS) (further details of a methylene blue assay are described below). Plates were read on a microplate reader, measuring the OD at 620 nm.
(§6) . The data are shown in Table 1 below and represent a compilation of several different experiments, each performed using the general parameters outlined above, although minor variations may have been employed in some instances.
(§7) In one assay, normal human foreskin fibroblasts (HFF), human colon (HCT116, RKO), lung (H460, A549) and breast (MCF7) tumor cell lines were cultured in high glucose DMEM (Life Technologies) containing 10% fetal bovine serum (FBS) at 37° C. in a humidified 5% CO2, 95% air incubator. Cells were harvested using trypsin/EDTA, counted using a haemocytometer, and plated in 100 μL of culture media per well, at the following densities, in a 96-well tissue culture plate (Falcon 3075): HFF 5,000 cells/well, HCT116 3,000 cells/well, RKO 2,500 cells/well, H460 2,500 cells/well, A549 5,000 cells/well, MCF7 4,000 cells/well. The next day, compounds were diluted in low glucose DMEM containing 100 μg/mL gentamicin, at twice the final required concentration, from 10 mM stock solutions in DMSO. 100 μL/well of these dilutions were added to the 100 μL of media currently in the assay plates. Medium containing 0.6% DMSO was added to control wells. The final concentration of DMSO in all wells was 0.3%. Cells were incubated at 37° C., 5% CO2 for 72 h. Medium was removed by aspiration. Cell biomass was estimated by staining cells with 80 μL per well methylene blue (Sigma M9140, 0.5% in 50:50 ethanol:water), and incubation at room temperature for 30-60 min. Stain was removed by aspiration and the plates rinsed by immersion in water, then air-dried. To release stain from the cells, 100 μL of solubilization solution was added (1% N-lauroyl sarcosine, Sodium salt, Sigma L5125, in PBS), and plates were shaken gently for about 30 min. Optical density at 620 nm was measured on a microplate reader. Percent inhibition of cell growth was calculated relative to vehicle treated control wells. […].

MV522 = experiment: Cell-Titer-Glo inhibition of cell proliferation, MV522; assay type: cell-based; conditions: CellTiter-Glo, 72 h
Protocol: as §1, §2, §3

H460 = experiment: Methylene blue growth inhibition assay, H460; assay type: cell-based; conditions: Homo sapiens
Protocol: as §4, §5, §6, §7

[2] = system: normal human foreskin fibroblasts (HFF); experiment: Methylene blue growth inhibition assay, HFF; assay type: cell-based; conditions: Fibroblast, 72 h
Protocol: as §4, §5, §6, §7

A549 = experiment: Methylene blue growth inhibition assay, A549; assay type: cell-based; conditions: Homo sapiens
Protocol: as §4, §5, §6, §7

MCF7 [3] = experiment: Methylene blue growth inhibition assay, MCF7; assay type: cell-based; conditions: Homo sapiens
Protocol: as §4, §5, §6, §7

MDA-MB-468 = experiment: Cell-Titer-Glo inhibition of cell proliferation, MDA-MB-468; assay type: cell-based; conditions: Homo sapiens, CellTiter-Glo, 72 h
Protocol: as §1, §2, §3

HT29 = experiment: Cell-Titer-Glo inhibition of cell proliferation, HT29; assay type: cell-based; conditions: Homo sapiens, HT-29, CellTiter-Glo, 72 h
Protocol: as §1, §2, §3

HCT116 [4] = experiment: Methylene blue growth inhibition assay, HCT116; assay type: cell-based; conditions: Homo sapiens
Protocol: as §4, §5, §6, §7

[5] = High throughput solubility assay; assay type: physicochemical; conditions: aqueous buffer, pH 7.4, 0.05M phosphate buffer
Protocol: IV. High Throughput Solubility Assay
Two samples are prepared for each compound. One (the standard sample) contains the compound at a fixed concentration of 20 μM in an aqueous/organic mixed solvent cocktail. The other (the test sample) contains the compound at a maximum concentration of 200 μM in pH 7.4, 0.05M phosphate buffer and shaking for 24 h. The test sample is filtered by 0.45μ filter and then spun for 10 min to remove any undissolved solid. HPLC analyses are preformed on these samples. The peak areas are used for computing solubility.

MX-1 = experiment: Cell-Titer-Glo inhibition of cell proliferation, MX-1; assay type: cell-based; conditions: Homo sapiens, MX1, CellTiter-Glo, 72 h
Protocol: as §1, §2, §3

A549-L = experiment: Cell-Titer-Glo inhibition of cell proliferation, A549-L; assay type: cell-based; conditions: CellTiter-Glo, 72 h
Protocol: as §1, §2, §3

human plasma proteins = experiment: Protein binding to human plasma proteins using equilibrium dialysis; assay type: in vitro ADME; conditions: pH 7.4, equilibrium dialysis 6 h, 37° C.
Protocol: III. Determination of Protein Binding to Human Plasma Proteins Using Equilibrium Dialysis
96 Well Plate (High Throughput Dialysis): Stock solutions of compounds were spiked into human plasma at a target concentration of 2000 ng/mL. The mixture was inverted gently several times to insure homogeneity and triplicate 50 μL aliquots were collected to verify initial concentrations. Following assembly of dialysis plate (HTDialysis membrane strips, molecular weight cut off limit of 12,000-14,000 daltons), spiked plasma (150 μL) was placed in the donor compartment of the well and Phosphate Buffered Saline pH 7.4 (150 μL) in the receiver compartment. Eight wells were set up per compound and plasma type. Plate was placed in a 37° C. incubator on a plate shaker. Following the 6 h incubation period, the plate was removed. Single 50 μL aliquots from each donor and receiver compartment (per well) were analyzed. Sample analysis was by LC/MS/MS (results reported as Drug Peak Area/Internal Standard Peak Area ratios). Protein binding assay can also be performed using dialysis cells instead of HT Dialysis 96 well plates. In Table 1, % Protein Binding, +=>98%; ++=95-98%: +++=<95%.

MCF7 [6] = experiment: Cell-Titer-Glo inhibition of cell proliferation, MCF7; assay type: cell-based; conditions: Homo sapiens, CellTiter-Glo, 72 h
Protocol: as §1, §2, §3

PLK1 kinase domain = molecular target: T1, PLK1 kinase domain (Homo sapiens, UniProt P53350); experiment: Assay for inhibition of PLK1 (SPA, 33P-ATP, biotinylated peptide substrate); assay type: biochemical; conditions: 1 μM ATP, 2 nM PLK1 kinase domain; read-out: PLK1 pIC50 (converted)
T1 construct: made in house; host or cells: baculovirus infected T. ni cells
Protocol: I. Assay for Inhibition of PLK1
All procedures were performed at 4° C. Cells were lysed in 50 mM HEPES, 200 mM NaCl, 50 mM imidazole, 5% glycerol; pH 7.5. The homogenate was centrifuged at 14K rpm in a SLA-1500 rotor for 1 h and the supernatant filtered through a 1.2 micron filter. The supernatant was loaded onto a Nickel chelating Sepharose (Amersham Pharmacia) column and washed with lysis buffer. Protein was eluted using 20%, 30% and 100% buffer B steps where buffer B is 50 mM HEPES, 200 mM NaCl, 300 mM imidazole, 5% glycerol; pH 7.5. Fractions containing PLK were determined by SDS-PAGE. Fractions containing PLK were diluted five-fold with 50 mM HEPES, 1 mM DTT, 5% glycerol; pH 7.5, then loaded on an SP Sepharose (Amersham Pharmacia) column. After washing the column with 50 mM HEPES, 1 mM DTT, 5% glycerol; pH 7.5, PLK was step eluted with 50 mM HEPES, 1 mM DTT, 500 mM NaCl; 5% glycerol; pH 7.5. PLK was concentrated using a 10 kDa molecular weight cutoff membrane and then loaded onto a Superdex 200 gel filtration (Amersham Pharmacia) column equilibrated in 25 mM HEPES, 1 mM DTT, 500 mM NaCl, 5% glycerol; pH 7.5. Fractions containing PLK were determined by SDS-PAGE. PLK was pooled, aliquoted and stored at −80° C. Samples were quality controlled using mass spectrometry, N-terminal sequencing and amino acid analysis.
B. Enzyme activity +/− inhibitors was determined as follows: All measurements were obtained under conditions where signal production increased linearly with time and enzyme. Test compounds were added to white 384-well assay plates (0.1 μL for 10 μL and some 20 μL assays, 1 μL for some 20 μL assays) at variable known concentrations in 100% DMSO. DMSO (1-5% final, as appropriate) and EDTA (65 mM in reaction) were used as controls.
Reaction Mix (10 or 20 μL) was quickly added to each well immediately following addition of enzyme via automated liquid handlers and incubated 1-1.5 h at 22° C. The 20 μL enzymatic reactions were stopped with 50 μL of stop mix (50 mM EDTA, 4.0 mg/ml Streptavidin SPA beads in Standard Dulbecco's PBS (without Mg^2+ and Ca^2+), 50 μM ATP) per well. The 10 μL reactions were stopped with 10 μL of stop mix (50 mM EDTA, 3.0 mg/mL Streptavidin-coupled SPA Imaging Beads (“LeadSeeker”) in Standard Dulbecco's PBS (without Mg^2+ and Ca^2+), 50 μM ATP) per well. Plates were sealed with clear plastic seals, spun at 500×g for 1 min or settled overnight, and counted in Packard TopCount for 30 seconds/well (regular SPA) or imaged using a Viewlux imager (LeadSeeker SPA). Signal above background (EDTA controls) was converted to percent inhibition relative to that obtained in control (DMSO-only) wells.

[7] = methylene blue, read-out: RKO IC50
[8] = NCI-H460, methylene blue, 72 h, H460, read-out: H460 IC50
[9] = methylene blue, HFF normal fibroblasts, read-out: HFF IC50
[10] = methylene blue, 72 h, A549, read-out: A549 IC50
[11] = methylene blue, 72 h, MCF7, read-out: MCF7 IC50
[12] = HCT-116, methylene blue, 72 h, HCT116, read-out: HCT116 IC50

T1 sequence (P53350 21-346): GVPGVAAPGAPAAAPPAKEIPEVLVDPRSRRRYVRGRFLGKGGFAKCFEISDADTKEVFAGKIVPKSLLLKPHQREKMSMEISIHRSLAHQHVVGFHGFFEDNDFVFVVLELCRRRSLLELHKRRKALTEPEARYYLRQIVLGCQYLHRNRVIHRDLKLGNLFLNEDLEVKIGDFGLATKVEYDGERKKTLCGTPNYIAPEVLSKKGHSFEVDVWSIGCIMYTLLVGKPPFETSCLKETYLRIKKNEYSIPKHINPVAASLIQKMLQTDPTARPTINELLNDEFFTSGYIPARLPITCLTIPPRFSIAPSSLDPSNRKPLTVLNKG

solubility at 24 h [5] [µM] | fraction unbound at 6 h, 2000 ng/mL (human plasma proteins) | IC50 (PLK1 kinase domain) [nM] | IC50 (H460; [8]) [µM] | IC50 (A549; [10]) [µM] | IC50 (MCF7 [3]; [11]) [µM] | IC50 (HCT116 [4]; [12]) [µM] | Structure (SMILES) | IC50 (RKO; [7]) [µM] | IC50 [2, 9] [µM] | further results
< 30 | < 0.02 | < 10 | < 0.1 | < 0.1 | 0.1 to 1 | 0.1 to 1 | COc1cc2ncn(-c3cc(OC(C)c4ccccc4C(F)(F)F)c(C(N)=O)s3)c2cc1OC (stereo not drawn) [Com. Ex 127, reference compound] | < 0.1 | > 1 | 
< 30 | > 0.05 | 10 to 1000 | > 1 | > 1 | 0.1 to 1 | 0.1 to 1 | NC(=O)c1sc(-n2cnc3ccc(OCC4CCNCC4)cc32)cc1OCc1ccccc1C(F)(F)F [Com. Ex 143, reference compound] | 0.1 to 1 | > 1 | 

Structure (SMILES) | solubility at 24 h [5] [µM] | fraction unbound at 6 h, 2000 ng/mL (human plasma proteins) | IC50 (PLK1 kinase domain) [nM] | IC50 (H460; [8]) [µM] | IC50 (A549; [10]) [µM] | IC50 (MCF7 [3]; [11]) [µM] | IC50 (HCT116 [4]; [12]) [µM] | IC50 (RKO; [7]) [µM] | IC50 [2, 9] [µM] | further results
C[C@@H](Oc1cc(-n2cnc3ccc(OC4CCNCC4)cc32)sc1C(N)=O)c1ccccc1C(F)(F)F [Example 5, 5-[6-(4-Piperidinyloxy)-1H-benzimidazol-1-yl]-3-({(1R)-1-[2-(trifluoromethyl)phenyl]ethyl}oxy)-2-thiophenecarboxamide] | > 100 | 0.02 to 0.05 |  |  |  |  |  |  |  | IC50 (H1299): < 500 nM; IC50 (HCT116 [1]): < 500 nM; IC50 (COLO205): < 500 nM; IC50 (SKOV-3): < 500 nM; IC50 (RKO; read-out: RKO IC50 (μM)): < 0.1 µM; IC50 (MV522): < 500 nM; IC50 (H460; NCI-H460, 72 h, read-out: H460 IC50 (μM)): < 0.1 µM; IC50 ([2]; read-out: HFF IC50 (μM)): 0.1 to 1 µM; IC50 (A549; A549, 72 h, read-out: A549 IC50 (μM)): < 0.1 µM; IC50 (MCF7 [3]; MCF7, 72 h, read-out: MCF7 IC50 (μM)): < 0.1 µM; IC50 (MDA-MB-468): < 500 nM; IC50 (HT29): < 500 nM; IC50 (HCT116 [4]; HCT-116, 72 h, read-out: HCT116 IC50 (μM)): < 0.1 µM; IC50 (MX-1): < 500 nM; IC50 (A549-L): < 500 nM; IC50 (MCF7 [6]): < 500 nM
